Measured values: patent publication US5994406A, “Geminal cationic surfactants of the type Nα Nω bis (Nα-acyl-arginin) α,ω diamino alkyl dichlorohydrates as antimicrobial agents” (Consejo Superior Investigaciones Cientificas, priority 1995, dated 1999)
Values after ≈ are worked out from the molar mass of the structure shown. Like-named read-outs stand apart in the source and are kept apart here.

Experiments:
[1] = test system: Staphylococcus epidermidis ATCC 1551; assay: antimicrobial activity, MIC, organism 6; type: cell-based
Protocol: (§1) The main properties of the surface activity in aqueous solution at 25° C. which define the practical interest of a surfactant; surface stress to the critical micellar concentration (γ) and critical micellar concentration (CMC) have been determined according to conventional methods. Likewise, the antimicrobial activity has been evaluated based on the inhibiting minimum concentration values (MIC) expressed in μg/mL following the most common methodologies. Table 1 indicates the values of […], CMC and MIC for two dimers of the same homologeous series; C4 (KA)2 (X=8,n=4) and C4 (LA)2 (X=10, n=4). For the purpose of comparisons in this same table the same values are indicated for the monocatenary compounds KAM and LAM respectively.
6. Staphylococcus epidermidis ATCC 1551

[2] = test system: Alcaligenes faecalis ATTCC 8750; assay: antimicrobial activity, minimum inhibitory concentration (MIC), organism 1; type: cell-based
Protocol: as §1
1. Alcaligenes faecalis ATTCC 8750

[3] = test system: Bacilus subtilis ATCC 6633; assay: antimicrobial activity, MIC, organism 4; type: cell-based
Protocol: as §1
4. Bacilus subtilis ATCC 6633

[4] = test system: Bordeltella bronchiseptica ATCC; assay: antimicrobial activity, MIC, organism 2; type: cell-based
Protocol: as §1
2. Bordeltella bronchiseptica ATCC

[5] = test system: Staphylococcus aereus ATCC 25178; assay: antimicrobial activity, MIC, organism 5; type: cell-based
Protocol: as §1
5. Staphylococcus aereus ATCC 25178

[6] = critical micellar concentration (CMC), aqueous solution 25° C; type: physicochemical
Protocol: as §1

[7] = surface activity: surface tension at the critical micellar concentration, aqueous solution 25° C; type: physicochemical; set-up: unit not given here
Protocol: as §1

[8] = test system: Streptococcus faecalis ATCC 10541; assay: antimicrobial activity, MIC, organism 3; type: cell-based
Protocol: as §1
3. Streptococcus faecalis ATCC 10541

[9] = test system: Micrococcus luteus ATCC 9341; assay: antimicrobial activity, MIC, organism 7; type: cell-based
Protocol: as §1
7. Micrococcus luteus ATCC 9341

In the case of `CCCCCCCCCC(=O)N[C@@H](CCCNC(=N)N)C(=O)NCCCCNC(=O)[C@H](CCCNC(=N)N)NC(=O)CCCCCCCCC` [C4 (KA)2, Nα, Nω, Bis (Nα -Decanoilarginin) α,ω-Diaminobuthylamide], the MIC ([1]; ATCC1551, read-out: MIC) is reported as 8 µg/mL (≈ 11.3 µM), the MIC ([2]; ATTCC8750, read-out: MIC) is reported as 64 µg/mL (≈ 90.3 µM) and the MIC ([3]; read-out: MIC) is reported as 8 µg/mL (≈ 11.3 µM). It also gave an MIC ([4]; read-out: MIC) of 32 µg/mL (≈ 45.1 µM), an MIC ([5]; ATCC25178, read-out: MIC) of 8 µg/mL (≈ 11.3 µM) and a CMC [6] of 7.8e-06 mM. For the same molecule, the “surface stress (γ) at the critical micellar concentration” value [7] was 25, the MIC ([8]; Enterococcus faecalis, ATCC10541, read-out: MIC) was 16 µg/mL (≈ 22.6 µM) and the MIC ([9]; ATCC9341, read-out: MIC) was 8 µg/mL (≈ 11.3 µM).

`CCCCCCCCCCCC(=O)N[C@@H](CCCN=C(N)N)C(=O)OC` [LAM] showed an MIC [1] of 64 µg/mL (≈ 173 µM), an MIC [2] of 64 µg/mL (≈ 173 µM) and an MIC [3] greater than 128 µg/mL. The MIC [4] was greater than 128 µg/mL, the MIC [5] was 64 µg/mL (≈ 173 µM) and the CMC [6] was 0.0037 mM. The “surface stress (γ) at the critical micellar concentration” value [7] was 30.0, the MIC [8] was 32 µg/mL (≈ 86.4 µM) and the MIC [9] was greater than 128 µg/mL.
